Patent US5326774A, “Pharmaceutical preparation of antihypertensive, antianginal, antiarrhythmic and antiglaucomic action” (priority 1992, dated 1994)
“Also recorded” adds a separate entry of the source. Like-named read-outs stand apart in the source and are kept apart here.

Legend:
[1] = molecular target: T1, β1-adrenoceptor (Rattus norvegicus, UniProt P18090); experiment: Inhibition of isadrin's positive chronotropic effect, i.v., anesthetized rats; format: in vivo
T1 construct: positive chronotropic and depressor effects in the anesthetized rats; from tissue; host or cells: whole living rat (heart rate response to isadrin); endogenous receptor
T1 sequence (P18090 whole entry): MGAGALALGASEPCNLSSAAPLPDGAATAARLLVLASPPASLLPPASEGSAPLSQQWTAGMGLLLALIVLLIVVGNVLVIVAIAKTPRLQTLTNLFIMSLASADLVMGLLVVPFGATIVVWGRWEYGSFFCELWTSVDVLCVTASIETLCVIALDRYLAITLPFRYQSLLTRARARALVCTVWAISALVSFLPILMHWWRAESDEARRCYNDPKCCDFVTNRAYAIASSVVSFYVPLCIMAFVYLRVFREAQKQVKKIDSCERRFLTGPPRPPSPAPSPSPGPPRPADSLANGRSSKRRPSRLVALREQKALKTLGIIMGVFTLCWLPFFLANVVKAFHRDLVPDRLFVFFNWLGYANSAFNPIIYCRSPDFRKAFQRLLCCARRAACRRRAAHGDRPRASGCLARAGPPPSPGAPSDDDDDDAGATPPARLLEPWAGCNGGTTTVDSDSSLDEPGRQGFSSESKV

[2] = system: arterial pressure; experiment: Arterial pressure in anesthetized rats, i.v.; format: in vivo, rat; settings: for arterial pressure: control 159±9
Description: β-adrenoceptor blocking activity of the active principle of the pharmaceutical preparation of the invention was studied. […]. The test substances were injected to several groups of animals (6-10 individuals each) in the graded doses of 0.001, 0.0025, 0.01, 0.025, and 0.1 mg/kg.
From the dosage of […] it gave rise to the lowering of arterial pressure (from 159±9 in the control to 141±11, 127±10 and 123 ±11 mm Hg in the dosages of 0.01, 0.025 and 0.1 mg/kg). From the dosage of 0.0025 mg/kg the compound of the invention gave rise to the dose-related suppression of the isadrin-initiated depressor effect (by 12,63, 82 and 90% in doses of 0.0025, 0.01, 0.025 and 0.1 mg/kg) and, starting from the dosage of […], a positive chronotropic (by 25, 46 and 78% in doses of 0.01, 0.025 said 0.1 mg/kg, respectively) effect.

[3] = molecular target: T1, β1-adrenoceptor; experiment: Oral administration, isadrin-initiated positive chronotropism in rats; format: in vivo
Description: The effects of oral administration of the compound according to the invention as compared with the known drugs on the isadrin-initiated positive chronotropism in rats were tested.

[4] = system: β1-adrenoceptor; experiment: Isadrin's positive chronotropic effect, i.v., anesthetized cats; format: in vivo, cat
Source text: The influence of intravenous injection of the compound according to the invention as compared with the known drugs on […] positive chronotropic and depressor effects in the anesthetized cats was studied.

[5] = system: β-adrenoceptor; experiment: β-adrenoceptor blocking effect duration; settings: in vivo
[6] = system: mesaton-initiated pressor effect; experiment: Mesaton-initiated pressor effect in anesthetized rats; format: in vivo, rat
[7] = system: mesaton-initiated pressor effect; experiment: Mesaton-initiated pressor effect in cats; parameters: species or system cat; settings: in vivo (rats and cats), i.v.
Description: The same tests were carried out on cats.

[8] = system: β-adrenoceptor; experiment: Partial agonistic activity and non-specific membrane-stabilizing effect
[9] = system: arterial pressure; experiment: Hypotensive activity in anesthetized cats, i.v.; format: in vivo, cat; settings: for arterial pressure: control 163±8
[10] = system: arterial pressure; experiment: Arterial pressure and heart rate in conscious normotensive rats, oral; format: in vivo, rat; settings: 10 and 50 mg/kg oral, 1 hour
[11] = system: arterial pressure; experiment: Antihypertensive effect in rats with renovascular hypertension; format: in vivo, rat
Description: . In rats suffering from renovascular hypertension the compound of the invention in the dosage of 10 mg/kg (injected intramuscularly) lowered with confidence the arterial pressure (from 137±3 to 117±5 mm of Hg column) 30 minutes after being administered. The 2-week course of the administration of the compound according to the invention (10 mg/kg 1 time a day) caused the antihypertensive effect to be enhanced. By the end of the second week the arterial pressure was 110±8.6 mm Hg. […]

[12] = system: electrically induced ventricular fibrillation; experiment: Threshold of electrically induced ventricular fibrillation in anesthetized cats; format: in vivo, cat
[13] = system: strophantin-induced arrhythmia; format: in vivo, guinea pig
[14] = system: coronary vessels; experiment: Coronary vessel dilatation and myocardial perfusion in anesthetized rats; format: in vivo, rat; settings: 0.1 mg/kg i.v. (compound of the invention); hydrochloride
Source text: The coronarodilative effect of the compound according to the invention is not associated with its β- and α-adrenoceptor blocking activity and its influence on the systemic perfusion pressure and pump function of the heart. […]

[15] = system: myocardium necrosis; experiment: Myocardium necrosis in rats with labile coronary occlusion; format: in vivo, rat; settings: for Mass and size myocardium (% to the total area of aortic ventricle): control 31.2 ± 1.96; for Area of myocardium necrosis (% to the total area of aortic ventricle): control 33.5 ± 2.5
[16] = system: arterial pressure; experiment: Antihypertensive effect in rats with spontaneous hypertension; format: in vivo, rat
[17] = in vivo; settings: mouse
Source text: LD50 values were estimated by using the Litchfield-Wilckoxon method.

Which “suppression of isadrin positive chronotropic effect” value ([1]; 0.01 mg/kg i.v.) does the source give for `Cc1noc(COc2ccccc2OCC(O)CNC(C)(C)C)n1.Cl` (stereo not drawn) [Compound of the invention, 3-methyl-5-[2-(3-tert.butylamino-2-hydroxypropoxy)phenoxymethyl]-1,2,4-oxadiazole hydrochloride] here?
The value was 25%.

And the “suppression of isadrin positive chronotropic effect” value ([1]; 0.025 mg/kg i.v.)?
The value was 46%.

And the “suppression of isadrin positive chronotropic effect” value ([1]; 0.1 mg/kg i.v.)?
The value was 78%.

And the “β1-adrenoceptor blocking activity compared with pindolol” value ([1]; comparison of ED50, rats i.v.)?
The value was “close to pindolol”.

And the “β1-adrenoceptor blocking activity, factor over labetalol” value ([1]; comparison of ED50, rats i.v.)?
The value was 23.

What about the “β1-adrenoceptor blocking activity, factor over oxprenolol” value ([1]; comparison of ED50, rats i.v.) of the same molecule?
The value was 9.

And the “β1-adrenoceptor blocking activity, factor over propranolol” value ([1]; comparison of ED50, rats i.v.)?
Its value is 12.

What about the “dosage from which isadrin positive chronotropic effect suppressed” value ([1]; i.v.) of the same molecule?
The value was 0.1 mg/kg.

And the ED50 ([1]; rat, iv, read-out: Dosage inhibiting isadrin's positive chronotropism by 50% (ED50))?
Its ED50 is 0.03 ± 0.001 mg/kg.

What about the arterial pressure ([2]; 0.01 mg/kg i.v.) of the same molecule?
The arterial pressure was 141±11 mm Hg.

What about the arterial pressure ([2]; 0.025 mg/kg i.v.) of the same molecule?
The arterial pressure was 127±10 mm Hg.

What about the arterial pressure ([2]; 0.1 mg/kg i.v.) of the same molecule?
Its arterial pressure is 123 ±11 mm Hg.

What about the minimal effective dose ([2]; Rattus norvegicus, iv, read-out: dosage from which arterial pressure lowered) of the same molecule?
Its minimal effective dose is 0.1 mg/kg.

And the “β1-adrenoceptor blocking activity compared with pindolol” value [3]?
Its value is “inferior to pindolol”.

What about the “β1-adrenoceptor blocking activity, superior to labetalol by” value [3] of the same molecule?
The value was 35 times.

What about the “β1-adrenoceptor blocking activity, superior to propranolol by” value [3] of the same molecule?
Its value is 14.8 times.

What about the “β1-adrenoceptor blocking activity compared with pindolol” value [4] of the same molecule?
Its value is “close to pindolol”.

What about the “β1-adrenoceptor blocking activity, factor over labetalol” value [4] of the same molecule?
Its value is 550.

And the “β1-adrenoceptor blocking activity, factor over oxprenolol” value [4]?
Its value is 35.

What about the “β1-adrenoceptor blocking activity, factor over propranolol” value [4] of the same molecule?
The value was 3.5.

And the “β-adrenoceptor blocking effect duration” value [5]?
Its value is “somewhat superior to propranolol and oxprenolol”.

And the “effect on mesaton pressor effect” value ([6]; 3 mg/kg i.v.)?
The value was “did not change”.

And the “suppression of mesaton pressor effect” value ([6]; 10 mg/kg i.v., average)?
The value was 76%.

And the “adrenoceptor blocking activity compared with labetalol” value [7]?
Its value is “did not differ from labetalol”.

And the non-specific membrane-stabilizing effect [8]?
The non-specific membrane-stabilizing effect was “has a non-specific membrane-stabilizing effect”.

What about the partial agonistic activity [8] of the same molecule?
The partial agonistic activity was “fails to exhibit a partial agonistic activity”.

What about the arterial pressure ([9]; 0.02 mg/kg) of the same molecule?
The arterial pressure was 147±12 mm Hg.

What about the arterial pressure ([9]; 0.1 mg/kg) of the same molecule?
The arterial pressure was 132±5 mm Hg.

And the arterial pressure ([9]; 0.3 mg/kg)?
Its arterial pressure is 96±7 mm Hg.

What about the arterial pressure ([9]; 1.0 mg/kg) of the same molecule?
Its arterial pressure is 90±7 mm Hg.

What about the arterial pressure ([9]; 5.0 mg/kg) of the same molecule?
The arterial pressure was 67±7 mm Hg.

And the ED20 ([9]; Felis catus, iv, anesthetized cats, read-out: Dose resulting in lowering of arterial pressure by 20%, ED20)?
The ED20 was 0.11 ± 0.01 mg/kg.

What about the minimal effective dose ([9]; Felis catus, iv, cats, read-out: dosage from which arterial pressure lowered) of the same molecule?
The minimal effective dose was 0.02 mg/kg.

And the “hypotensive effect compared with labetalol” value ([9]; anesthetized normotensive cats, i.v.)?
Its value is “stronger hypotensive effect as compared with labetalol”.

What about the “hypotensive activity, times as high as labetalol” value ([9]; comparison of ED20) of the same molecule?
Its value is 9 times.

What about the “hypotensive activity and duration compared with labetalol” value ([9]; in vivo) of the same molecule?
Its value is “superior to labetalol by hypotensive activity and duration of such effect”.

What about the “duration of hypotensive effect” value ([9]; large dosages) of the same molecule?
Its value is 3 to 4 h.

And the “duration of hypotensive effect” value ([9]; small dosages)?
Its value is 0.083 to 0.5 h.

And the arterial pressure [10]?
The arterial pressure was “arterial pressure lowering”.

And the heart rate [10]?
The heart rate was “a decrease in heart rate”.

What about the arterial pressure ([11]; 10 mg/kg 1 time a day, end of second week) of the same molecule?
The arterial pressure was 110±8.6 mm Hg.

What about the arterial pressure ([11]; 10 mg/kg i.m., 30 minutes, from 137±3) of the same molecule?
The arterial pressure was 117±5 mm of Hg column.

And the “efficacy on long-time use” value ([11]; long time use)?
Its value is “its efficacy is not becoming low (no drug addiction)”.

What about the “threshold of electrically induced ventricular fibrillation” value ([12]; 1 mg/kg) of the same molecule?
The value was “did not change”.

What about the “threshold of electrically induced ventricular fibrillation” value ([12]; 5 mg/kg) of the same molecule?
The value was “increased considerably this threshold”.

And the “value of increasing threshold compared with propranolol and oxprenolol” value ([12]; 5 mg/kg)?
Its value is “higher”.

What about the “antiarrhythmic activity and efficacy (ventricular fibrillation threshold, strophanthin arrhythmia)” value ([12]; compared with propranolol, oxprenolol, pindolol and labetalol) of the same molecule?
The value was “superior to propranolol, oxprenolol, pindolol and labetalol”.

What about the “Arrhythmogenic dose of strophantin as compared with control: extrasystoles” value ([13]; 0.1 mg/kg i.v.) of the same molecule?
Its value is 118%.

What about the “Dose of strophantin as compared with control: ventricular fibrillation” value ([13]; 0.1 mg/kg i.v.) of the same molecule?
Its value is 115.6%.

What about the “Lethal dose of strophantin as compared with control: animal death” value ([13]; 0.1 mg/kg i.v.) of the same molecule?
Its value is 118.7%.

What about the “Arrhythmogenic dose of strophantin as compared with control: extrasystoles” value ([13]; 0.3 mg/kg i.v.) of the same molecule?
The value was 125.9%.

And the “Dose of strophantin as compared with control: ventricular fibrillation” value ([13]; 0.3 mg/kg i.v.)?
The value was 113.1%.

What about the “Lethal dose of strophantin as compared with control: animal death” value ([13]; 0.3 mg/kg i.v.) of the same molecule?
The value was 123.5%.

What about the “Arrhythmogenic dose of strophantin as compared with control: extrasystoles” value ([13]; 1.0 mg/kg i.v.) of the same molecule?
Its value is 148.2%.

What about the “Dose of strophantin as compared with control: ventricular fibrillation” value ([13]; 1.0 mg/kg i.v.) of the same molecule?
Its value is 147.2%.

What about the “Lethal dose of strophantin as compared with control: animal death” value ([13]; 1.0 mg/kg i.v.) of the same molecule?
The value was 142.6%.

What about the “Arrhythmogenic dose of strophantin as compared with control: extrasystoles” value ([13]; 3.0 mg/kg i.v.) of the same molecule?
Its value is 157.0%.

What about the “Dose of strophantin as compared with control: ventricular fibrillation” value ([13]; 3.0 mg/kg i.v.) of the same molecule?
Its value is 170.2%.

And the “Lethal dose of strophantin as compared with control: animal death” value ([13]; 3.0 mg/kg i.v.)?
Its value is 150.7%.

What about the “antiarrhythmic activity and efficacy” value ([13]; 0.1-3.0 mg/kg i.v.) of the same molecule?
Its value is “superior to propranolol, oxprenolol and labetalol”.

What about the “coronary vessel dilatation / myocardial perfusion” value [14] of the same molecule?
Its value is “dilatation (with confidence) of coronary vessels; also recorded: direct coronarodilating effect”.

And the “Mass and size myocardium (% to the total area of aortic ventricle)” value ([15]; 1 mg/kg)?
Its value is 31.5%.

And the “Area of myocardium necrosis (% to the total area of aortic ventricle)” value ([15]; 1 mg/kg)?
The value was 30%.

And the “aortic ventricle necrosis in mass and size” value ([15]; 5 mg/kg i.v.)?
The value was “decreasing in the aortic ventricle necrosis in mass and size”.

And the “Mass and size myocardium (% to the total area of aortic ventricle)” value ([15]; 5 mg/kg, P < 0.05)?
The value was 23.6 ± 3.2%.

What about the “Area of myocardium necrosis (% to the total area of aortic ventricle)” value ([15]; 5 mg/kg, P < 0.05) of the same molecule?
Its value is 24.3 ± 3.4%.

And the “hypotensive and antihypertensive properties” value [16]?
The value was “shows hypotensive and antihypertensive properties”.

And the LD50 at 72 h ([17]; iv)?
The LD50 at 72 h was 72.5 mg/kg.

What about the LD50 at 72 h ([17]; po) of the same molecule?
Its LD50 at 72 h is 600 mg/kg.
